In PubChem BioAssay (NCI):
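1) Cells in 96-well plates. 2) Compound, 48 h, 5 concentrations. 3) Linear interpolation between surrounding doses. 4) Unreached endpoint = highest concentration. GI50 is the concentration that inhibits growth by half. TGI: concentration producing complete growth inhibition.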

Key:
Assay in all cases: growth of human tumour cells (NCI), 48 h
786-0 renal = test system: 786-0 renal
A498 renal = test system: A498 renal
A549 NSCLC = test system: A549 NSCLC
ACHN renal = test system: ACHN renal
BT-549 breast = test system: BT-549 breast
CAKI-1 renal = test system: CAKI-1 renal
CCRF-CEM leukemia = test system: CCRF-CEM leukemia
COLO 205 colon = test system: COLO 205 colon
DU-145 prostate = test system: DU-145 prostate
EKVX NSCLC = test system: EKVX NSCLC
HCC-2998 colon = test system: HCC-2998 colon
HCT-116 colon = test system: HCT-116 colon
HCT-15 colon = test system: HCT-15 colon
HL-60(TB) leukemia = test system: HL-60(TB) leukemia
HOP-62 NSCLC = test system: HOP-62 NSCLC
HOP-92 NSCLC = test system: HOP-92 NSCLC
HS 578T breast = test system: HS 578T breast
HT29 colon = test system: HT29 colon
IGROV1 ovarian = test system: IGROV1 ovarian
K-562 leukemia = test system: K-562 leukemia
KM12 colon = test system: KM12 colon
LOX IMVI melanoma = test system: LOX IMVI melanoma
M14 melanoma = test system: M14 melanoma
MALME-3M melanoma = test system: MALME-3M melanoma
MCF7 breast = test system: MCF7 breast
MDA-MB-231 breast = test system: MDA-MB-231 breast
MDA-MB-435 = test system: MDA-MB-435
MOLT-4 leukemia = test system: MOLT-4 leukemia
NCI-H226 lung = test system: NCI-H226 lung

With `CCC(=C(c1ccc(OCCN2CCCCCC2)cc1)c1ccc(OCCN2CCCCCC2)cc1)c1ccc(Cl)cc1` the GI50 (786-0 renal) was 0.578 µM, the TGI (786-0 renal) was 1.18 µM and the GI50 (A498 renal) was 4.88 µM. The TGI (A498 renal) was 9.72 µM, the GI50 (A549 NSCLC) was 1.11 µM and the TGI (A549 NSCLC) was 4.21 µM. For the same compound, the GI50 (ACHN renal) was 1.55 µM, the TGI (ACHN renal) was 5.79 µM and the GI50 (BT-549 breast) was 3.38 µM. It also gave a TGI (BT-549 breast) of 7.52 µM, a GI50 (CAKI-1 renal) of 1 µM and a TGI (CAKI-1 renal) of 4.49 µM. It also gave a GI50 (CCRF-CEM leukemia) of 0.657 µM, a TGI (CCRF-CEM leukemia) of 1.79 µM and a GI50 (COLO 205 colon) of 0.586 µM. For the same compound, the TGI (COLO 205 colon) was 1.21 µM, the GI50 (DU-145 prostate) was 1.36 µM and the TGI (DU-145 prostate) was 5.02 µM. It also gave a GI50 (EKVX NSCLC) of 3.52 µM, a TGI (EKVX NSCLC) of 8.01 µM and a GI50 (HCC-2998 colon) of 0.553 µM. The TGI (HCC-2998 colon) was 1.13 µM, the GI50 (HCT-116 colon) was 0.582 µM and the TGI (HCT-116 colon) was 1.36 µM. It also gave a GI50 (HCT-15 colon) of 0.631 µM, a TGI (HCT-15 colon) of 1.45 µM and a GI50 (HL-60(TB) leukemia) of 0.683 µM. It also gave a TGI (HL-60(TB) leukemia) of 1.6 µM, a GI50 (HOP-62 NSCLC) of 2.64 µM and a TGI (HOP-62 NSCLC) of 7.58 µM. The GI50 (HOP-92 NSCLC) was 1.34 µM, the TGI (HOP-92 NSCLC) was 6.07 µM and the GI50 (HS 578T breast) was 0.727 µM. It also gave a TGI (HS 578T breast) of 1.87 µM, a GI50 (HT29 colon) of 0.652 µM and a TGI (HT29 colon) of 1.41 µM. For the same compound, the GI50 (IGROV1 ovarian) was 1.35 µM, the TGI (IGROV1 ovarian) was 5.21 µM and the GI50 (K-562 leukemia) was 0.424 µM. The TGI (K-562 leukemia) was 1.03 µM, the GI50 (KM12 colon) was 1.06 µM and the TGI (KM12 colon) was 3.6 µM. The GI50 (LOX IMVI melanoma) was 0.502 µM, the TGI (LOX IMVI melanoma) was 1.01 µM and the GI50 (M14 melanoma) was 0.639 µM. It also gave a TGI (M14 melanoma) of 1.3 µM, a GI50 (MALME-3M melanoma) of 0.576 µM and a TGI (MALME-3M melanoma) of 1.27 µM. The GI50 (MCF7 breast) was 0.0916 µM, the TGI (MCF7 breast) was 0.785 µM and the GI50 (MDA-MB-231 breast) was 2.06 µM. It also gave a TGI (MDA-MB-231 breast) of 7.76 µM, a GI50 (MDA-MB-435) of 0.644 µM and a TGI (MDA-MB-435) of 1.36 µM. The GI50 (MOLT-4 leukemia) was 0.685 µM, the TGI (MOLT-4 leukemia) was 1.74 µM and the GI50 (NCI-H226 lung) was 4.48 µM. The TGI (NCI-H226 lung) was 9.56 µM.
